The source of these data is US20220387455A1, “TREATMENT OF MODERATE TO SEVERE INFLUENZA” (priority 2015, published 2022).

Molecules are shown by their SMILES. Structures can show the parent of a compound that is named as a salt. Where two headings read alike, the source gives them in different places.

Data set [1] in a line: Example 1: clinical safety of single inhaled doses in healthy adults. The class given is in vivo, human. As to the method:
In a controlled clinical environment, 38 healthy adults received single doses of either 0.9% saline solution as placebo or up to 750 mg of ASA by inhalation (placebo n=10, ASA n=28).

The test system of data set [2] is influenza virus infection. To be noted: for Time to alleviation of clinical influenza symptoms (T1), Mean: 800 mg LASAG (400 mg ASA) inhaled three times daily.
The conditions of data set [3]: in vivo.

For `CC(=O)Oc1ccccc1C(=O)O` [ASA, acetylsalicylic acid], the “Serious events or severe adverse effects” value in data set [1] (single inhaled doses up to 750 mg ASA) was “no serious events or severe adverse effects were observed”. In addition, in data set [1] (single inhaled doses up to 750 mg ASA as LASAG solution about 200 mg/ml, AKITA Apixneb), the “Tolerability of administered doses” value is recorded as “overall well tolerated”. In data set [1] (single inhaled doses up to 750 mg ASA, higher doses), the “Effect on pulmonary function tests parameters” value is listed as “no effect on pulmonary function tests parameters”.
Turning to `CC(=O)Oc1ccccc1C(=O)O` [LASAG, D,L-lysine acetylsalicylate glycine salt], in data set [2] (CSS ≥14, per protocol set), the “Time to alleviation of clinical influenza symptoms (T1), Max.” value worked out at 67.4 h; the “Time to alleviation of clinical influenza symptoms (T1), Min.” value was 9.8 h; the “Time to alleviation of clinical influenza symptoms (T1), Q1” value turned out to be 23.5 h; the “Time to alleviation of clinical influenza symptoms (T1), Q3” value is 52.4 h. For the same compound, in data set [2] (CSS ≥14, per protocol set), the “Time to alleviation of clinical influenza symptoms (T1), Mean” value stood at 38.3 h. The “Time to alleviation of clinical influenza symptoms (T1), Median” value in data set [2] (CSS ≥14, per protocol set, 800 mg LASAG inhaled three times daily) was found to be 27.8 h. In data set [2] (CSS ≥17, per protocol set), the “Time to alleviation of clinical influenza symptoms (T1), Max.” value is 66.9 h; the “Time to alleviation of clinical influenza symptoms (T1), Median” value was 47.0 h; the “Time to alleviation of clinical influenza symptoms (T1), Min.” value is 23.5 h; the “Time to alleviation of clinical influenza symptoms (T1), Q1” value was determined as 27.8 h. In addition, in data set [2] (CSS ≥17, per protocol set), the “Time to alleviation of clinical influenza symptoms (T1), Q3” value is 62.1 h and the “Time to alleviation of clinical influenza symptoms (T1), Mean” value turned out to be 44.7 h. Moreover, in data set [2] (first patient group with CSS (log rank p 0.0313), placebo 51.6 h), the “Time to alleviation of influenza symptoms T1” value came to 38.3 h. In data set [2] (human, in vivo), the “Difference to placebo in time required for alleviation of clinical influenza symptoms” value is “no significant difference” and the “Recovery by baseline corrected daily activity score (DAS)” value is listed as “better recovery than the placebo group”. The “Number of inhalations after which patients were alleviated” value in data set [2] (patients with CSS, assuming start with the morning inhalation, placebo about 9) is “about 6 inhalations”. In addition, in data set [2] (second patient group with CSS (log rank p 0.0152), placebo 71.5 h), the “Time to alleviation of influenza symptoms T1” value came out at 44.7 h. Moreover, in data set [3] (human), the “Number of adverse events (AE)” value was determined as 41, the “Number of patients affected by AE” value turned out to be 23, the “Required medication due to AEs” value is listed as “About 56.1%” and the “Share of all adverse events (AE)” value came to 49.4%. In addition, the “Share of group patients affected by AE” value in data set [3] (human) turned out to be 41.1%. Moreover, in data set [3], the “Death or other significant adverse events” value is “no case of death or other significant adverse events” and the “Difference to placebo with regard to tolerability” value is “no significant differences”.
